# Reference: ChEMBL document CHEMBL1201861, “Genomics of Drug Sensitity in Cancer screening data, Wellcome Trust Sanger Institute”
# pIC50: −log10 of the molar value.
# Test system: COLO-800;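 note: growth inhibition of COLO-800 cells, read out with a cell viability assay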
# Assay: cells
# Assay type: functional, cell-based, Homo sapiens
# Conditions: Homo sapiens, COLO-800
# Description: SANGER: Inhibition of human COLO-800 cell growth in a cell viability assay.
row,Compound,pIC50
1,Nc1ccn([C@@H]2O[C@H](CO)[C@@H](O)C2(F)F)c(=O)n1 [GEMCITABINE],7.39

# Test system: COLO-829
# Assay: cells
# Assay type: functional, cell-based, Homo sapiens
# Conditions: Homo sapiens, COLO-829
# Description: SANGER: Inhibition of human COLO-829 cell growth in a cell viability assay.
row,Compound,pIC50
1,Nc1ccn([C@@H]2O[C@H](CO)[C@@H](O)C2(F)F)c(=O)n1 [GEMCITABINE],< 5.99

# Test system: CP66-MEL;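 note: growth inhibition of CP66-MEL cells determined in a cell viability assay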
# Assay: cells
# Assay type: functional, cell-based, Homo sapiens
# Conditions: Homo sapiens, CP66-MEL
# Description: SANGER: Inhibition of human CP66-MEL cell growth in a cell viability assay.
row,Compound,pIC50
1,Nc1ccn([C@@H]2O[C@H](CO)[C@@H](O)C2(F)F)c(=O)n1 [GEMCITABINE],< 5.99

# Test system: CTV-1;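 note: growth inhibition of the cell line, read out with a cell viability assay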
# Assay: cells
# Assay type: functional, cell-based, Homo sapiens
# Conditions: Homo sapiens, CTV-1
# Description: SANGER: Inhibition of human CTV-1 cell growth in a cell viability assay.
row,Compound,pIC50
1,Nc1ccn([C@@H]2O[C@H](CO)[C@@H](O)C2(F)F)c(=O)n1 [GEMCITABINE],7.85

# Test system: DSH1;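 note: growth inhibition of human DSH1 cells, measured with a cell viability readout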
# Assay: cells
# Assay type: functional, cell-based, Homo sapiens
# Conditions: Homo sapiens, DSH1
# Description: SANGER: Inhibition of human DSH1 cell growth in a cell viability assay.
row,Compound,pIC50
1,Nc1ccn([C@@H]2O[C@H](CO)[C@@H](O)C2(F)F)c(=O)n1 [GEMCITABINE],7.02

# Test system: EC-GI-10
# Assay: cells
# Assay type: functional, cell-based, Homo sapiens
# Conditions: Homo sapiens, EC-GI-10
# Description: SANGER: Inhibition of human EC-GI-10 cell growth in a cell viability assay.
row,Compound,pIC50
1,Nc1ccn([C@@H]2O[C@H](CO)[C@@H](O)C2(F)F)c(=O)n1 [GEMCITABINE],< 5.99

# Test system: ES1;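 note: growth inhibition of ES1 cells, read out with a cell viability assay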
# Assay: cells
# Assay type: functional, cell-based, Homo sapiens
# Conditions: Homo sapiens, ES1
# Description: SANGER: Inhibition of human ES1 cell growth in a cell viability assay.
row,Compound,pIC50
1,Nc1ccn([C@@H]2O[C@H](CO)[C@@H](O)C2(F)F)c(=O)n1 [GEMCITABINE],> 8.40

# Test system: ES7;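 note: growth inhibition of cultured human ES7 cells, read out as cell viability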
# Assay: cells
# Assay type: functional, cell-based, Homo sapiens
# Conditions: Homo sapiens, ES7
# Description: SANGER: Inhibition of human ES7 cell growth in a cell viability assay.
row,Compound,pIC50
1,Nc1ccn([C@@H]2O[C@H](CO)[C@@H](O)C2(F)F)c(=O)n1 [GEMCITABINE],7.70

# Test system: EW-18;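 note: growth inhibition of EW-18 cells, read out by a cell viability assay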
# Assay: cells
# Assay type: functional, cell-based, Homo sapiens
# Conditions: Homo sapiens, EW-18
# Description: SANGER: Inhibition of human EW-18 cell growth in a cell viability assay.
row,Compound,pIC50
1,Nc1ccn([C@@H]2O[C@H](CO)[C@@H](O)C2(F)F)c(=O)n1 [GEMCITABINE],7.14

# Test system: EOL1;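 note: growth inhibition of EoL-1 cells, read out by a cell viability assay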
# Assay: cells
# Assay type: functional, cell-based, Homo sapiens
# Conditions: Homo sapiens, EOL1
# Description: SANGER: Inhibition of human EoL-1-cell cell growth in a cell viability assay.
row,Compound,pIC50
1,Nc1ccn([C@@H]2O[C@H](CO)[C@@H](O)C2(F)F)c(=O)n1 [GEMCITABINE],> 8.40

# Test system: GB-1;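 note: growth of GB-1 cells judged by a viability assay, IC50 marks the concentration inhibiting growth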
# Assay: cells
# Assay type: functional, cell-based, Homo sapiens
# Conditions: Homo sapiens, GB-1
# Description: SANGER: Inhibition of human GB-1 cell growth in a cell viability assay.
row,Compound,pIC50
1,Nc1ccn([C@@H]2O[C@H](CO)[C@@H](O)C2(F)F)c(=O)n1 [GEMCITABINE],8.23

# Test system: GT3TKB;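 note: growth inhibition of the cell line, read out with a cell viability assay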
# Assay: cells
# Assay type: functional, cell-based, Homo sapiens
# Conditions: Homo sapiens, GT3TKB
# Description: SANGER: Inhibition of human GT3TKB cell growth in a cell viability assay.
row,Compound,pIC50
1,Nc1ccn([C@@H]2O[C@H](CO)[C@@H](O)C2(F)F)c(=O)n1 [GEMCITABINE],7.37

# Test system: HDLM-2;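 note: cell viability assay measuring suppression of HDLM-2 proliferation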
# Assay: cells
# Assay type: functional, cell-based, Homo sapiens
# Conditions: Homo sapiens, HDLM-2
# Description: SANGER: Inhibition of human HDLM-2 cell growth in a cell viability assay.
row,Compound,pIC50
1,Nc1ccn([C@@H]2O[C@H](CO)[C@@H](O)C2(F)F)c(=O)n1 [GEMCITABINE],< 5.99

# Test system: KLE;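 note: growth inhibition of human KLE cells, read out with a cell viability assay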
# Assay: cells
# Assay type: functional, cell-based, Homo sapiens
# Conditions: Homo sapiens, KLE
# Description: SANGER: Inhibition of human KLE cell growth in a cell viability assay.
row,Compound,pIC50
1,Nc1ccn([C@@H]2O[C@H](CO)[C@@H](O)C2(F)F)c(=O)n1 [GEMCITABINE],6.34

# Test system: KMOE-2;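 note: growth inhibition of human KMOE-2 cells, read out with a cell viability assay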
# Assay: cells
# Assay type: functional, cell-based, Homo sapiens
# Conditions: Homo sapiens, KMOE-2
# Description: SANGER: Inhibition of human KMOE-2 cell growth in a cell viability assay.
row,Compound,pIC50
1,Nc1ccn([C@@H]2O[C@H](CO)[C@@H](O)C2(F)F)c(=O)n1 [GEMCITABINE],6.81

# Test system: KNS-81-FD;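 note: growth inhibition of KNS-81-FD cells, read out with a cell viability assay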
# Assay: cells
# Assay type: functional, cell-based, Homo sapiens
# Conditions: Homo sapiens, KNS-81-FD
# Description: SANGER: Inhibition of human KNS-81-FD cell growth in a cell viability assay.
row,Compound,pIC50
1,Nc1ccn([C@@H]2O[C@H](CO)[C@@H](O)C2(F)F)c(=O)n1 [GEMCITABINE],< 5.99

# Test system: LAN-6;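 note: growth inhibition of LAN-6 cells, determined with a cell viability assay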
# Assay: cells
# Assay type: functional, cell-based, Homo sapiens
# Conditions: Homo sapiens, LAN-6
# Description: SANGER: Inhibition of human LAN-6 cell growth in a cell viability assay.
row,Compound,pIC50
1,Nc1ccn([C@@H]2O[C@H](CO)[C@@H](O)C2(F)F)c(=O)n1 [GEMCITABINE],< 5.99

# Test system: LB1047-RCC;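 note: inhibition of cell growth, determined with a cell viability assay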
# Assay: cells
# Assay type: functional, cell-based, Homo sapiens
# Conditions: Homo sapiens, LB1047-RCC
# Description: SANGER: Inhibition of human LB1047-RCC cell growth in a cell viability assay.
row,Compound,pIC50
1,Nc1ccn([C@@H]2O[C@H](CO)[C@@H](O)C2(F)F)c(=O)n1 [GEMCITABINE],> 8.40

# Test system: LS-123
# Assay: cells
# Assay type: functional, cell-based, Homo sapiens
# Conditions: Homo sapiens, LS-123
# Description: SANGER: Inhibition of human LS-123 cell growth in a cell viability assay.
row,Compound,pIC50
1,Nc1ccn([C@@H]2O[C@H](CO)[C@@H](O)C2(F)F)c(=O)n1 [GEMCITABINE],7.39

# Test system: LXF-289 cell line
# Assay: cells
# Assay type: functional, cell-based, Homo sapiens
# Conditions: Homo sapiens, LXF-289
# Description: SANGER: Inhibition of human LXF-289 cell growth in a cell viability assay.
row,Compound,pIC50
1,Nc1ccn([C@@H]2O[C@H](CO)[C@@H](O)C2(F)F)c(=O)n1 [GEMCITABINE],8.48

# Test system: MHH-NB-11;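 note: growth inhibition of human MHH-NB-11 cells, read out by a cell viability assay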
# Assay: cells
# Assay type: functional, cell-based, Homo sapiens
# Conditions: Homo sapiens, MHH-NB-11
# Description: SANGER: Inhibition of human MHH-NB-11 cell growth in a cell viability assay.
row,Compound,pIC50
1,Nc1ccn([C@@H]2O[C@H](CO)[C@@H](O)C2(F)F)c(=O)n1 [GEMCITABINE],6.41

# Test system: MHH-PREB-1;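 note: cell viability assay measuring inhibition of proliferation of human MHH-PREB-1 cells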
# Assay: cells
# Assay type: functional, cell-based, Homo sapiens
# Conditions: Homo sapiens, MHH-PREB-1
# Description: SANGER: Inhibition of human MHH-PREB-1 cell growth in a cell viability assay.
row,Compound,pIC50
1,Nc1ccn([C@@H]2O[C@H](CO)[C@@H](O)C2(F)F)c(=O)n1 [GEMCITABINE],6.61

# Test system: ML-2;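 note: growth inhibition of ML-2 cells, measured with a cell viability readout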
# Assay: cells
# Assay type: functional, cell-based, Homo sapiens
# Conditions: Homo sapiens, ML-2
# Description: SANGER: Inhibition of human ML-2 cell growth in a cell viability assay.
row,Compound,pIC50
1,Nc1ccn([C@@H]2O[C@H](CO)[C@@H](O)C2(F)F)c(=O)n1 [GEMCITABINE],7.59

# Test system: NB69;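 note: growth inhibition of NB69 cells, determined by a cell viability assay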
# Assay: cells
# Assay type: functional, cell-based, Homo sapiens
# Conditions: Homo sapiens, NB69
# Description: SANGER: Inhibition of human NB69 cell growth in a cell viability assay.
row,Compound,pIC50
1,Nc1ccn([C@@H]2O[C@H](CO)[C@@H](O)C2(F)F)c(=O)n1 [GEMCITABINE],8.98

# Test system: NCI-H1648;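 note: cell viability assay measuring inhibition of NCI-H1648 cell growth, from the Sanger screening data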
# Assay: cells
# Assay type: functional, cell-based, Homo sapiens
# Conditions: Homo sapiens, NCI-H1648
# Description: SANGER: Inhibition of human NCI-H1648 cell growth in a cell viability assay.
row,Compound,pIC50
1,Nc1ccn([C@@H]2O[C@H](CO)[C@@H](O)C2(F)F)c(=O)n1 [GEMCITABINE],6.29

# Test system: NCI-H510A;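 note: growth inhibition of NCI-H510A cells, read out with a cell viability assay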
# Assay: cells
# Assay type: functional, cell-based, Homo sapiens
# Conditions: Homo sapiens, NCI-H510A
# Description: SANGER: Inhibition of human NCI-H510A cell growth in a cell viability assay.
row,Compound,pIC50
1,Nc1ccn([C@@H]2O[C@H](CO)[C@@H](O)C2(F)F)c(=O)n1 [GEMCITABINE],7.48

# Test system: SNU1;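 note: growth inhibition of human NCI-SNU-1 cells, measured with a cell viability assay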
# Assay: cells
# Assay type: functional, cell-based, Homo sapiens
# Conditions: Homo sapiens, SNU1
# Description: SANGER: Inhibition of human NCI-SNU-1 cell growth in a cell viability assay.
row,Compound,pIC50
1,Nc1ccn([C@@H]2O[C@H](CO)[C@@H](O)C2(F)F)c(=O)n1 [GEMCITABINE],> 8.40

# Test system: NKM-1;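 note: growth inhibition of NKM-1 cells, read out with a cell viability assay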
# Assay: cells
# Assay type: functional, cell-based, Homo sapiens
# Conditions: Homo sapiens, NKM-1
# Description: SANGER: Inhibition of human NKM-1 cell growth in a cell viability assay.
row,Compound,pIC50
1,Nc1ccn([C@@H]2O[C@H](CO)[C@@H](O)C2(F)F)c(=O)n1 [GEMCITABINE],> 8.40

# Test system: ONS-76;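 note: growth inhibition of human ONS-76 cells, read out with a cell viability assay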
# Assay: cells
# Assay type: functional, cell-based, Homo sapiens
# Conditions: Homo sapiens, ONS-76
# Description: SANGER: Inhibition of human ONS-76 cell growth in a cell viability assay.
row,Compound,pIC50
1,Nc1ccn([C@@H]2O[C@H](CO)[C@@H](O)C2(F)F)c(=O)n1 [GEMCITABINE],8.06

# Test system: RPMI-8866
# Assay: cells
# Assay type: functional, cell-based, Homo sapiens
# Conditions: Homo sapiens, RPMI-8866
# Description: SANGER: Inhibition of human RPMI-8866 cell growth in a cell viability assay.
row,Compound,pIC50
1,Nc1ccn([C@@H]2O[C@H](CO)[C@@H](O)C2(F)F)c(=O)n1 [GEMCITABINE],7.02

# Test system: SCC-15;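 note: growth inhibition of SCC-15 cells, read out with a cell viability assay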
# Assay: cells
# Assay type: functional, cell-based, Homo sapiens
# Conditions: Homo sapiens, SCC-15
# Description: SANGER: Inhibition of human SCC-15 cell growth in a cell viability assay.
row,Compound,pIC50
1,Nc1ccn([C@@H]2O[C@H](CO)[C@@H](O)C2(F)F)c(=O)n1 [GEMCITABINE],6.92

# Test system: SF-126;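 note: growth inhibition of human SF126 cells, read out with a cell viability assay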
# Assay: cells
# Assay type: functional, cell-based, Homo sapiens
# Conditions: Homo sapiens, SF-126
# Description: SANGER: Inhibition of human SF126 cell growth in a cell viability assay.
row,Compound,pIC50
1,Nc1ccn([C@@H]2O[C@H](CO)[C@@H](O)C2(F)F)c(=O)n1 [GEMCITABINE],8.15

# Test system: SK-UT-1;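 note: growth inhibition of SK-UT-1 cells, measured by a cell viability assay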
# Assay: cells
# Assay type: functional, cell-based, Homo sapiens
# Conditions: Homo sapiens, SK-UT-1
# Description: SANGER: Inhibition of human SK-UT-1 cell growth in a cell viability assay.
row,Compound,pIC50
1,Nc1ccn([C@@H]2O[C@H](CO)[C@@H](O)C2(F)F)c(=O)n1 [GEMCITABINE],> 8.40

# Test system: SNB-75;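 note: cell viability assay measuring growth inhibition of human SNB-75 cells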
# Assay: cells
# Assay type: functional, cell-based, Homo sapiens
# Conditions: Homo sapiens, SNB-75
# Description: SANGER: Inhibition of human SNB75 cell growth in a cell viability assay.
row,Compound,pIC50
1,Nc1ccn([C@@H]2O[C@H](CO)[C@@H](O)C2(F)F)c(=O)n1 [GEMCITABINE],7.43

# Test system: SW872;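 note: growth inhibition of SW872 cells, read out by a viability assay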
# Assay: cells
# Assay type: functional, cell-based, Homo sapiens
# Conditions: Homo sapiens, SW872
# Description: SANGER: Inhibition of human SW872 cell growth in a cell viability assay.
row,Compound,pIC50
1,Nc1ccn([C@@H]2O[C@H](CO)[C@@H](O)C2(F)F)c(=O)n1 [GEMCITABINE],> 8.40

# Test system: SW982;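 note: growth inhibition of SW982 cells, read out with a cell viability assay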
# Assay: cells
# Assay type: functional, cell-based, Homo sapiens
# Conditions: Homo sapiens, SW982
# Description: SANGER: Inhibition of human SW982 cell growth in a cell viability assay.
row,Compound,pIC50
1,Nc1ccn([C@@H]2O[C@H](CO)[C@@H](O)C2(F)F)c(=O)n1 [GEMCITABINE],> 8.40

# Test system: 697
# Assay: cells
# Assay type: functional, cell-based, Homo sapiens
# Conditions: Homo sapiens
# Description: SANGER: Inhibition of human 697 cell growth in a cell viability assay.
row,Compound,pIC50
1,Nc1ccn([C@@H]2O[C@H](CO)[C@@H](O)C2(F)F)c(=O)n1 [GEMCITABINE],8.20

# Test system: A253 cell line;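 note: growth inhibition of A253 cells, read out with a cell viability assay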
# Assay: cells
# Assay type: functional, cell-based, Homo sapiens
# Conditions: Homo sapiens, A253
# Description: SANGER: Inhibition of human A253 cell growth in a cell viability assay.
row,Compound,pIC50
1,Nc1ccn([C@@H]2O[C@H](CO)[C@@H](O)C2(F)F)c(=O)n1 [GEMCITABINE],6.99

# Test system: BB49-HNC;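 note: cell viability assay read-out, reported as inhibition of BB49-HNC cell growth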
# Assay: cells
# Assay type: functional, cell-based, Homo sapiens
# Conditions: Homo sapiens, BB49-HNC
# Description: SANGER: Inhibition of human BB49-HNC cell growth in a cell viability assay.
row,Compound,pIC50
1,Nc1ccn([C@@H]2O[C@H](CO)[C@@H](O)C2(F)F)c(=O)n1 [GEMCITABINE],< 5.99

# Test system: TE-12;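 note: growth inhibition of TE-12 cells, read out by a cell viability assay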
# Assay: cells
# Assay type: functional, cell-based, Homo sapiens
# Conditions: Homo sapiens, TE-12
# Description: SANGER: Inhibition of human TE-12 cell growth in a cell viability assay.
row,Compound,pIC50
1,Nc1ccn([C@@H]2O[C@H](CO)[C@@H](O)C2(F)F)c(=O)n1 [GEMCITABINE],< 5.99

# Test system: TE-8;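 note: growth inhibition of TE-8 cells, measured with a cell viability readout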
# Assay: cells
# Assay type: functional, cell-based, Homo sapiens
# Conditions: Homo sapiens, TE-8
# Description: SANGER: Inhibition of human TE-8 cell growth in a cell viability assay.
row,Compound,pIC50
1,Nc1ccn([C@@H]2O[C@H](CO)[C@@H](O)C2(F)F)c(=O)n1 [GEMCITABINE],8.10

# Test system: TGBC1TKB;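 note: growth inhibition of TGBC1TKB cells, read out by a cell viability assay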
# Assay: cells
# Assay type: functional, cell-based, Homo sapiens
# Conditions: Homo sapiens, TGBC1TKB
# Description: SANGER: Inhibition of human TGBC1TKB cell growth in a cell viability assay.
row,Compound,pIC50
1,Nc1ccn([C@@H]2O[C@H](CO)[C@@H](O)C2(F)F)c(=O)n1 [GEMCITABINE],< 5.99

# Test system: TGBC24TKB;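 note: growth inhibition of human TGBC24TKB cells, read out with a cell viability assay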
# Assay: cells
# Assay type: functional, cell-based, Homo sapiens
# Conditions: Homo sapiens, TGBC24TKB
# Description: SANGER: Inhibition of human TGBC24TKB cell growth in a cell viability assay.
row,Compound,pIC50
1,Nc1ccn([C@@H]2O[C@H](CO)[C@@H](O)C2(F)F)c(=O)n1 [GEMCITABINE],< 5.99

# Test system: U-266
# Assay: cells
# Assay type: functional, cell-based, Homo sapiens
# Conditions: Homo sapiens, U-266
# Description: SANGER: Inhibition of human U-266 cell growth in a cell viability assay.
row,Compound,pIC50
1,Nc1ccn([C@@H]2O[C@H](CO)[C@@H](O)C2(F)F)c(=O)n1 [GEMCITABINE],6.22

# Test system: VA-ES-BJ;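 note: growth inhibition of the VA-ES-BJ cell line, read out by a cell viability assay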
# Assay: cells
# Assay type: functional, cell-based, Homo sapiens
# Conditions: Homo sapiens, VA-ES-BJ
# Description: SANGER: Inhibition of human VA-ES-BJ cell growth in a cell viability assay.
row,Compound,pIC50
1,Nc1ccn([C@@H]2O[C@H](CO)[C@@H](O)C2(F)F)c(=O)n1 [GEMCITABINE],8.28

# Test system: no-11;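 note: growth inhibition of human NO-11 cells, read out with a cell viability assay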
# Assay: cells
# Assay type: functional, cell-based, Homo sapiens
# Conditions: Homo sapiens
# Description: SANGER: Inhibition of human no-11 cell growth in a cell viability assay.
row,Compound,pIC50
1,Nc1ccn([C@@H]2O[C@H](CO)[C@@H](O)C2(F)F)c(=O)n1 [GEMCITABINE],6.13

# Test system: CCRF-CEM;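 note: inhibition of CCRF-CEM cell growth, measured by a cell viability assay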
# Assay: cells
# Assay type: functional, cell-based, Homo sapiens
# Conditions: Homo sapiens, CCRF-CEM
# Description: SANGER: Inhibition of human CCRF-CEM cell growth in a cell viability assay.
row,Compound,pIC50
1,Nc1ccn([C@@H]2O[C@H](CO)[C@@H](O)C2(F)F)c(=O)n1 [GEMCITABINE],7.72

# Test system: COLO-668
# Assay: cells
# Assay type: functional, cell-based, Homo sapiens
# Conditions: Homo sapiens, COLO-668
# Description: SANGER: Inhibition of human COLO-668 cell growth in a cell viability assay.
row,Compound,pIC50
1,Nc1ccn([C@@H]2O[C@H](CO)[C@@H](O)C2(F)F)c(=O)n1 [GEMCITABINE],8.58

# Test system: COLO-684
# Assay: cells
# Assay type: functional, cell-based, Homo sapiens
# Conditions: Homo sapiens, COLO-684
# Description: SANGER: Inhibition of human COLO-684 cell growth in a cell viability assay.
row,Compound,pIC50
1,Nc1ccn([C@@H]2O[C@H](CO)[C@@H](O)C2(F)F)c(=O)n1 [GEMCITABINE],7.58
